Literature values as cited in US20090311335A1, “COMBINATION OF A TRIPTAN AND AN NSAID” (priority 2008, published 2009).

Legend:
[1] = single intravenous dose, range 5 to 60 mg
[2] = oral 75 mg or 150 mg, dual-release formulation

| solubility in methanol (methanol) | solubility in strong acids and bases (strong acids and bases) | solubility in water (water) | dose proportionality of pharmacokinetics [1] | SMILES | efficacy and tolerability in acute treatment of migraine attacks [2] |
| --- | --- | --- | --- | --- | --- |
| very slightly soluble | higher solubility | practically insoluble | dose-proportional | Cc1cnc(NC(=O)C2=C(O)c3ccccc3S(=O)(=O)N2C)s1 [Meloxicam, 4-hydroxy-2-methyl-N-(5-methyl-2-thiazolyl-)-2-H-1,2-benzothiazine-3-carboxamide 1,1-dioxide] | – |
| – | – | – | – | CC(C(=O)O)c1cccc(C(=O)c2ccccc2)c1 (centres unmarked) [ketoprofen] | effective and well-tolerated |
